Reference: the supplement of paper PMC4862054

Key:
Assay in all cases: normalised viability (% of control), CellTiter-Blue; higher = more viable cells (about 100 = DMSO control)
Details in all cases: incubation time: 72 h
[1] = system: CAL-148
Experimental: (§1)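 DSRT, CellTiter-Blue viability, 72 h incubation. Signal is normalised to DMSO and benzethonium chloride controls. Value is the normalised response at dose 8.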

[2] = system: CAL-51
Experimental: as §1

[3] = system: CAL-85-1
Experimental: as §1

[4] = system: DU-4475
Experimental: as §1

[5] = system: HDQ-P1
Experimental: as §1

[6] = system: MDA-MB-453
Experimental: as §1

[7] = system: CAL-148; remark: listed apart in the source
Experimental: (§2)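 DSRT, CellTiter-Blue viability, 72 h incubation. Signal is normalised to DMSO and benzethonium chloride controls. Value is the normalised response at dose 6.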

[8] = system: CAL-51; remark: listed apart in the source
Experimental: as §2

[9] = system: CAL-85-1; remark: listed apart in the source
Experimental: as §2

[10] = system: DU-4475; remark: listed apart in the source
Experimental: as §2

[11] = system: HDQ-P1; remark: listed apart in the source
Experimental: as §2

[12] = system: MDA-MB-453; remark: listed apart in the source
Experimental: as §2

[13] = system: CAL-148; remark: listed apart in the source
Experimental: (§3)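 DSRT, CellTiter-Blue viability, 72 h incubation. Signal is normalised to DMSO and benzethonium chloride controls. Value is the normalised response at dose 7.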

[14] = system: CAL-51; remark: listed apart in the source
Experimental: as §3

[15] = system: CAL-85-1; remark: listed apart in the source
Experimental: as §3

[16] = system: DU-4475; remark: listed apart in the source
Experimental: as §3

[17] = system: HDQ-P1; remark: listed apart in the source
Experimental: as §3

[18] = system: MDA-MB-453; remark: listed apart in the source
Experimental: as §3

Compound `Cc1[nH]c2ccccc2c1CCNCc1ccc(/C=C/C(=O)NO)cc1` [Panobinostat] (300 nM) has a normalised viability [1] of 1.12%, a normalised viability [2] of 5.46% and a normalised viability [3] of 7.2%. The normalised viability [4] was 6.86%, the normalised viability [5] was 23.1% and the normalised viability [6] was 1.93%.

Compound `COCC1(CO)C(=O)C2CCN1CC2` (stereo not drawn) [Prima-1 Met] (300 nM) has a normalised viability [7] of 94.5%, a normalised viability [8] of 91.2% and a normalised viability [9] of 83.3%. The normalised viability [10] was 116%, the normalised viability [11] was 53.8% and the normalised viability [12] was 87.1%.

Compound `COCC1(CO)C(=O)C2CCN1CC2` (stereo not drawn) [Prima-1 Met] (3000 nM) has a normalised viability [1] of 89.1%, a normalised viability [2] of 97.2% and a normalised viability [3] of 91.4%. For the same compound, the normalised viability [4] was 101%, the normalised viability [5] was 77.5% and the normalised viability [6] was 100%.

`CNC(=O)c1cc(Oc2ccc(NC(=O)Nc3ccc(Cl)c(C(F)(F)F)c3)c(F)c2)ccn1` [Regorafenib] (300 nM) showed a normalised viability [7] of 93.6%, a normalised viability [8] of 100% and a normalised viability [9] of 85.3%. For the same compound, the normalised viability [10] was 103%, the normalised viability [11] was 89.8% and the normalised viability [12] was 95.6%.

For `CNC(=O)c1cc(Oc2ccc(NC(=O)Nc3ccc(Cl)c(C(F)(F)F)c3)c(F)c2)ccn1` [Regorafenib] (3000 nM), the normalised viability [1] was 95.8%, the normalised viability [2] was 69.5% and the normalised viability [3] was 86.6%. For the same compound, the normalised viability [4] was 67.6%, the normalised viability [5] was 88.4% and the normalised viability [6] was 53.1%.

In the case of `CO[C@H]1C[C@@H]2CC[C@@H](C)[C@@](O)(O2)C(=O)C(=O)N2CCCC[C@H]2C(=O)O[C@H]([C@H](C)C[C@@H]2CC[C@@H](OP(C)(C)=O)[C@H](OC)C2)CC(=O)[C@H](C)/C=C(\C)[C@@H](O)[C@@H](OC)C(=O)[C@H](C)C[C@H](C)/C=C/C=C/C=C/1C` [Ridaforolimus] (30 nM), the normalised viability [7] was 40.8%, the normalised viability [8] was 37.9% and the normalised viability [9] was 53.8%. For the same compound, the normalised viability [10] was 54%, the normalised viability [11] was 72.4% and the normalised viability [12] was 27.9%.

`CO[C@H]1C[C@@H]2CC[C@@H](C)[C@@](O)(O2)C(=O)C(=O)N2CCCC[C@H]2C(=O)O[C@H]([C@H](C)C[C@@H]2CC[C@@H](OP(C)(C)=O)[C@H](OC)C2)CC(=O)[C@H](C)/C=C(\C)[C@@H](O)[C@@H](OC)C(=O)[C@H](C)C[C@H](C)/C=C/C=C/C=C/1C` [Ridaforolimus] (300 nM) gave a normalised viability [1] of 34.2%, a normalised viability [2] of 35.5% and a normalised viability [3] of 55.4%. The normalised viability [4] was 51.7%, the normalised viability [5] was 65.8% and the normalised viability [6] was 28.5%.

Work on `c1ccc2c(CCNc3ccc(Nc4ccncc4)cc3)c[nH]c2c1` [Serdemetan] (300 nM) yielded a normalised viability [7] of 87.6%, a normalised viability [8] of 108% and a normalised viability [9] of 87.7%. It also gave a normalised viability [10] of 87.6%, a normalised viability [11] of 57.9% and a normalised viability [12] of 109%.

`c1ccc2c(CCNc3ccc(Nc4ccncc4)cc3)c[nH]c2c1` [Serdemetan] (3000 nM) was tested, and the normalised viability [1] was 67%, the normalised viability [2] was 88.5% and the normalised viability [3] was 67.1%. It also gave a normalised viability [4] of 79.5%, a normalised viability [5] of 89% and a normalised viability [6] of 66.8%.

`S=P(N1CC1)(N1CC1)N1CC1` [Thio-TEPA] (3000 nM) gave a normalised viability [7] of 91.2%, a normalised viability [8] of 94.8% and a normalised viability [9] of 96.8%. For the same compound, the normalised viability [10] was 92.2%, the normalised viability [11] was 90.4% and the normalised viability [12] was 95.5%.

In the case of `S=P(N1CC1)(N1CC1)N1CC1` [Thio-TEPA] (10000 nM), the normalised viability [13] was 113%, the normalised viability [14] was 89.6% and the normalised viability [15] was 91.3%. For the same compound, the normalised viability [16] was 96.6%, the normalised viability [17] was 113% and the normalised viability [18] was 121%.

In the case of `S=P(N1CC1)(N1CC1)N1CC1` [Thio-TEPA] (30000 nM), the normalised viability [1] was 127%, the normalised viability [2] was 102% and the normalised viability [3] was 97.8%. For the same compound, the normalised viability [4] was 103%, the normalised viability [5] was 108% and the normalised viability [6] was 97%.

For `CN(C)CCOc1ccc(/C(=C(/CCCl)c2ccccc2)c2ccccc2)cc1` [Toremifene] (300 nM), the normalised viability [7] was 102%, the normalised viability [8] was 104% and the normalised viability [9] was 101%. The normalised viability [10] was 99.7%, the normalised viability [11] was 79.5% and the normalised viability [12] was 101%.

Compound `CN(C)CCOc1ccc(/C(=C(/CCCl)c2ccccc2)c2ccccc2)cc1` [Toremifene] (3000 nM) has a normalised viability [1] of 104%, a normalised viability [2] of 95.8% and a normalised viability [3] of 109%. For the same compound, the normalised viability [4] was 101%, the normalised viability [5] was 113% and the normalised viability [6] was 99.7%.

`CC(C)C[C@@H](C(=O)N[C@H](C(=O)OC1CCCC1)c1ccccc1)[C@H](O)C(=O)NO` [Tosedostat] (300 nM) was tested, and the normalised viability [7] was 78.1%, the normalised viability [8] was 86.5% and the normalised viability [9] was 92.8%. It also gave a normalised viability [10] of 51.1%, a normalised viability [11] of 81.5% and a normalised viability [12] of 51.8%.

With `CC(C)C[C@@H](C(=O)N[C@H](C(=O)OC1CCCC1)c1ccccc1)[C@H](O)C(=O)NO` [Tosedostat] (3000 nM) the normalised viability [1] was 56.5%, the normalised viability [2] was 75.3% and the normalised viability [3] was 61.1%. It also gave a normalised viability [4] of 48.1%, a normalised viability [5] of 72.9% and a normalised viability [6] of 49.8%.

In the case of `COc1cc2/c(=N/c3ccc(Br)cc3F)nc[nH]c2cc1OCC1CCN(C)CC1` [Vandetanib] (300 nM), the normalised viability [7] was 90.7%, the normalised viability [8] was 89.6% and the normalised viability [9] was 83.7%. The normalised viability [10] was 101%, the normalised viability [11] was 31.4% and the normalised viability [12] was 97.5%.

In the case of `COCC[n+]1c2c(n(Cc3cnccn3)c1C)C(=O)c1ccccc1C2=O` [YM155] (300 nM), the normalised viability [7] was 1.6%, the normalised viability [8] was 2.3% and the normalised viability [9] was 1.89%. The normalised viability [10] was 10.8%, the normalised viability [11] was -0.08% and the normalised viability [12] was 10.9%.
